Experimental data: patent publication US20180289665A1, “USE OF CANNABIS TO TREAT MIGRAINE” (ONE WORLD CANNABIS LTD, priority 2014, published 2018)

What was measured:
[1] = tested on: dural blood vessel dilation; conditions: dilation from electrical stimulation, calcitonin gene-related peptide, nitrous oxide and capsaicin; reversed by a cannabinoid antagonist; cited from earlier work
[2] = tested on: patients with acute migraine attack; assay: Clinical trial of THC vs ibuprofen in acute migraine attack (Example 2); type: in vivo, human; conditions: primary endpoint; assumption for sample size
Excerpt: To assess the effect of Tetrahydrocannabinol (THC) or a derivative thereof vs. NSAIDs (such as ibuprofen) in relieving acute migraine attack.
This example provides a prospective randomized double-blind, placebo-controlled trial.
The study population includes patients presenting with chief complaint an acute migraine attack to the emergency department (ED) at Soroka University Medical Center.
The study population is randomized into “double dummy” design (ratio 1:1): • Group 1—received Tetrahydrocannabinol (THC) and placebo tab ibuprofen. • Group 2—received placebo Tetrahydrocannabinol (THC) drops and tab ibuprofen.
The THC study doses include dose rages of between about 5 mg and up to 50 mg THC, preferably dose ranges of between about 10 mg THC and about 30 mg THC.
According to one embodiment, an ethanol extracted cannabis oil dissolved in a vegetable oil (with a distinct taste to differentiate it from the placebo oil) is used in this study. The aforementioned cannabis composition comprises THC dose range of about 20 mg to about 40 mg.
Headache and nausea severity is assessed using a 4-point pain severity scale (score 0-3) as detailed above. […] Additionally, THC blood levels are measured at about 30, 60 minutes and 2 hours. […]

Compound | dural blood vessel dilation [1] | expected treatment failure rate [2]
CCCCC/C=C\C/C=C\C/C=C\C/C=C\CCCC(=O)NCCO [AEA, N-arachidonoylethanolamine] | inhibit | –
CCCCCc1cc(O)c2c(c1)OC(C)(C)[C@@H]1CCC(C)=C[C@@H]21 [THC, Δ9-Tetrahydrocannabinol] | – | 40%
